# From ChEMBL document CHEMBL5325509, “Pyrrolidinedione-thiazolidinone hybrid molecules with potent cytotoxic effect in squamous cell carcinoma SCC-15 cells” (Bioorg Med Chem, 2023)
# Activity calls are given as the source filed them. No cut-off for these calls is given here.
# What was measured:
# [1] = Downregulation of Ki67 expression in PPARgamma-silenced human SCC-15 cells at 1 uM incubated for 48 hrs Western blot analysis relative to control; type: functional
# [2] = Upregulation of Caspase-3 activity in human SCC-15 cells at 50 uM measured after 24 hrs in presence of Ac-DEVD-AMC by fluorescence microplate reader analysis; type: functional
# SCC-15 [3] = assay: Cytotoxicity against human SCC-15 cells assessed as LDH release incubated for 48 hrs; type: functional, cell-based; conditions: SCC-15, 48 h
# SCC-15 [4] = assay: Induction of intracellular ROS generation in human SCC-15 cells at 0.001 to 100 uM by DCFH-DA staining based immunofluorescence analysis; type: functional, cell-based; conditions: dose 0.001-100 µM, time 24-48 hrs, TDE = time-dependent effect
# SCC-15 [5] = assay: Cytotoxicity against human SCC-15 cells assessed as LDH release at 50 nM incubated for 48 hrs relative to control; type: functional
# [6] = Upregulation of Caspase-3 activity in human SCC-15 cells at 50 uM measured after 48 hrs in presence of Ac-DEVD-AMC by fluorescence microplate reader analysis; type: functional
# [7] = Downregulation of PCNA expression in PPARgamma-silenced human SCC-15 cells at 1 uM incubated for 48 hrs Western blot analysis relative to siRNA control; type: functional
# SCC-15 [8] = assay: Cytotoxicity against human SCC-15 cells assessed as LDH release at 1 uM incubated for 48 hrs relative to control; type: functional
# [9] = Downregulation of PPARgamma mRNA expression in human SCC-15 cells at 1 uM measured after 24 hrs by RT-PCR analysis (reference value: 79.68 %); type: functional
# SCC-15 [10] = assay: Cytotoxicity against human SCC-15 cells assessed as LDH release at 100 uM incubated for 48 hrs relative to control; type: functional
# [11] = Cytotoxicity against human HaCaT cells assessed reduction in cellular metabolic activity incubated for 72 hrs by MTT assay; type: toxicity, cell-based
# SCC-15 [12] = assay: Induction of intracellular ROS generation in human SCC-15 cells incubated for 24 to 48 hrs by DCFH-DA staining based immunofluorescence analysis; type: functional, cell-based; conditions: dose 0.001-100 µM, time 24-48 hrs
# [13] = Downregulation of AHR mRNA expression in PPARgamma-silenced human SCC-15 cells at 1 uM measured after 24 hrs by RT-PCR analysis; type: functional
# SCC-15 [14] = assay: Cytotoxicity against human SCC-15 cells assessed as decrease in cellular metabolic activity at 100 uM incubated for 24 hrs by resazurin reduction assay relative to control; type: functional; set-up: scale not given: the % may be the effect or the level left
# [15] = Upregulation of PPARgamma expression in PPARgamma-silenced human SCC-15 cells at 1 uM incubated for 48 hrs Western blot analysis relative to control; type: functional
# [16] = Upregulation of Caspase-3 activity in human SCC-15 cells at 100 uM measured after 48 hrs in presence of Ac-DEVD-AMC by fluorescence microplate reader analysis; type: functional
# [17] = Upregulation of Caspase-3 activity in human SCC-15 cells at 100 uM measured after 24 hrs in presence of Ac-DEVD-AMC by fluorescence microplate reader analysis; type: functional
# [18] = Cytotoxicity against human HaCaT cells assessed reduction in cellular metabolic activity incubated for 24 to 72 hrs by MTT assay; type: toxicity, cell-based
# [19] = Downregulation of NRFL2 mRNA expression in PPARgamma-silenced human SCC-15 cells at 1 uM measured after 24 hrs by RT-PCR analysis; type: functional
# BALB/3T3 = assay: Cytotoxicity against mouse BALB/3T3 cells assessed reduction in cellular metabolic activity at 0.1 to 100 uM incubated for 24 to 72 hrs by MTT assay; type: toxicity, cell-based; conditions: balb/3t3, 100 µM, dose lower 0.1 µM, time lower 24 hrs, dose upper 100 µM, time upper 72 hrs
# [20] = Cytotoxicity against mouse BALB/3T3 cells assessed reduction in cellular metabolic activity incubated for 24 to 72 hrs by MTT assay; type: toxicity, cell-based
# SCC-15 [21] = assay: Cytotoxicity against human SCC-15 cells assessed as LDH release incubated for 24 hrs; type: functional, cell-based; conditions: SCC-15, 24 h
# [22] = Downregulation of PPARgamma expression in PPARgamma-silenced human SCC-15 cells at 1 uM incubated for 48 hrs Western blot analysis relative to control; type: functional
# [23] = Downregulation of PPARgamma mRNA expression in PPARgamma-silenced human SCC-15 cells at 1 uM measured after 24 hrs by RT-PCR analysis; type: functional
# SCC-15 [24] = assay: Cytotoxicity against human SCC-15 cells assessed as decrease in cellular metabolic activity incubated for 24 hrs by resazurin reduction assay; type: functional, cell-based; conditions: SCC-15, 24 h
# [25] = Downregulation of Ki67 expression in PPARgamma-silenced human SCC-15 cells at 1 uM incubated for 48 hrs Western blot analysis relative to siRNA control; type: functional
# HaCaT = assay: Cytotoxicity against human HaCaT cells assessed reduction in cellular metabolic activity at 0.1 to 100 uM incubated for 24 to 72 hrs by MTT assay; type: toxicity, cell-based; conditions: dose lower 0.1 µM, time lower 24 hrs, dose upper 100 µM, time upper 72 hrs
# [26] = Downregulation of AHR expression in PPARgamma-silenced human SCC-15 cells at 1 uM incubated for 48 hrs Western blot analysis relative to SiRNA control; type: functional
# SCC-15 [27] = assay: Induction of intracellular ROS generation in human SCC-15 cells at 50 to 100 uM incubated for 48 hrs by DCFH-DA staining based immunofluorescence analysis; type: functional; conditions: dose 50-100 µM
# [28] = Downregulation of PPARgamma expression in PPARgamma-silenced human SCC-15 cells at 1 uM incubated for 48 hrs Western blot analysis relative to SiRNA control; type: functional
# SCC-15 [29] = assay: Cytotoxicity against human SCC-15 cells assessed as LDH release at 50 uM incubated for 48 hrs relative to control; type: functional
# [30] = Upregulation of NRFL2 mRNA expression in PPARgamma knockdown human SCC-15 cells at 1 uM measured after 24 hrs by RT-PCR analysis; type: functional
# [31] = Downregulation of NRFL2 mRNA expression in human SCC-15 cells at 1 uM measured after 24 hrs by RT-PCR analysis (reference value: 18.36 %); type: functional
# SCC-15 [32] = assay: Cytotoxicity against human SCC-15 cells assessed as LDH release at 10 uM incubated for 48 hrs relative to control; type: functional
# SCC-15 [33] = assay: Cytotoxicity against human SCC-15 cells assessed as decrease in cellular metabolic activity incubated for 48 hrs by resazurin reduction assay; type: functional, cell-based; conditions: SCC-15, 48 h
# [34] = Downregulation of AHR mRNA expression in human SCC-15 cells at 1 uM measured after 24 hrs by RT-PCR analysis (reference value: 17.30 %); type: functional
# SCC-15 [35] = assay: Induction of intracellular ROS generation in human SCC-15 cells at 0.001 to 1 uM incubated for 24 to 48 hrs by DCFH-DA staining based immunofluorescence analysis; type: functional, cell-based; conditions: dose 0.001-1 µM, time 24-48 hrs
# [36] = Downregulation of PCNA expression in PPARgamma-silenced human SCC-15 cells at 1 uM incubated for 48 hrs Western blot analysis relative to control; type: functional
# SCC-15 [37] = assay: Cytotoxicity against human SCC-15 cells assessed as decrease in cellular metabolic activity at 10 to 100 uM incubated for 48 hrs by resazurin reduction assay relative to control; type: functional; set-up: scale not given: the % may be the effect or the level left; conditions: dose 10-100 µM
# [38] = Cytotoxicity against mouse BALB/3T3 cells assessed reduction in cellular metabolic activity incubated for 72 hrs by MTT assay; type: toxicity, cell-based
smiles,measurement,setting,value
O=C1CC(N2C(=O)/C(=C/C(Cl)=C/c3ccc([N+](=O)[O-])cc3)SC2=S)C(=O)N1c1ccc(Br)cc1 (stereo not given),Activity,[1],17%
same,Activity,[2],42.87%
same,EC50,SCC-15 [3],16.9 µM
same,Activity,SCC-15 [4],Tde
same,Activity,SCC-15 [5],2%
same,Activity,[6],21.08%
same,Activity,[7],24.94%
same,Activity,SCC-15 [8],1.2%
same,Activity,[9],12.29%
same,Activity,SCC-15 [10],328%
same,IC50 at 72 h,[11],83.6 µM
same,Activity,SCC-15 [12],Dose-Dependent Effect
same,Activity,[13],10.4%
same,Activity,SCC-15 [14],27.07%
same,Activity,[15],11.23%
same,Activity,[16],57.04%
same,Activity,[17],121.15%
same,IC50,[18],> 100 µM
same,Activity,[19],26.91%
same,Activity,BALB/3T3,Non-Toxic
same,IC50,[20],> 100 µM
same,EC50,SCC-15 [21],15.4 µM
same,Activity,[22],14.43%
same,Activity,[23],73.1%
same,IC50,SCC-15 [24],> 100 µM
same,Activity,[25],39.67%
same,Activity,HaCaT,Non-Toxic
same,Activity,[26],32.23%
same,Activity,SCC-15 [27],12%
same,Activity,[28],18.45%
same,Activity,SCC-15 [29],178.4%
same,Activity,[30],17.1%
same,Activity,[31],8.55%
same,Activity,SCC-15 [32],30%
same,IC50,SCC-15 [33],39.9 µM
same,Activity,[34],11.84%
same,Activity,SCC-15 [35],inactive
same,Activity,[36],12.74%
same,Activity,SCC-15 [37],24.52%
same,IC50 at 72 h,[38],85.2 µM
